Measurements published in paper PMC5845353, “The selective cathepsin K inhibitor MIV-711 attenuates joint pathology in experimental animal models of osteoarthritis” (Journal of Translational Medicine, 2018).

Tested on: rabbits subjected to anterior cruciate ligament transection (ACLT)
Assay: Rabbit ACLT study, histomorphometry of bone, cartilage and osteophytes
Assay type: in vivo
Description: The femora and tibias were decalcified, embedded in paraffin, sectioned at 5-7 µm at two different levels separated by approximately 2 mm, and stained with safranin O and toluidine blue.
Both tibial plateaus and femoral condyles (i.e. four joint compartments) were also subjected to histomorphometric analysis of cartilage, subchondral bone, cancellous bone, and osteophytes. The measurements were made using OsteoMeasureXP version 3.3.0.2 as follows:
Uncalcified cartilage area was measured by tracing the articular surface (cartilage perimeter) and bone or calcified cartilage/uncalcified cartilage interface (cartilage boundary).
Cartilage width was measured by point to point measurement at intersections between a sampling grid with approximately 0.5 mm spacing and the cartilage boundary. The intercepts measured were orthogonal to the cartilage boundary and ended at the cartilage perimeter. At intersections where the cartilage width was zero due to erosion, a value of zero was recorded.
Subchondral bone width was measured by point to point measurement at intersections between a sampling grid with approximately 0.5 mm spacing and the cartilage boundary. The intercepts measured were orthogonal to the cartilage boundary and ended at the first marrow cavity encountered that had at least one dimension approximately equivalent to nearby trabecular thickness.
Osteophyte area was measured for abaxial osteophytes. On the femur, osteophytes associated with the condyles but not with the trochlear grooves were measured.
Bone area (including osteoid) and perimeter were measured in a 3.8 X 1.5 mm ROI centered approximately 1 mm below the bone/cartilage interface. This ROI was intended to be equivalent to the subchondral cancellous bone VOI measured by microCT. Bone volume (BV/TV), trabecular thickness (Tb.Th), trabecular number (Tb.N) and trabecular separation (Tb.Sp) were derived from these measurements using standard formulae.
Slides were evaluated in animal ID order, i.e. in random order with respect to treatment, so that the measurer was effectively blinded to treatment assignment.
Analysis was performed on all four condyles at two levels (Level 1 and 2) for each condyle:
Group 1) sham + vehicle; Group 2) ACLT + vehicle; Group 3) ACLT + MIV-711, 30 µmol/kg (low dose) and Group 4) ACLT + MIV-711, 100 µmol/kg (high dose).

[1] = Level 1 LFC, Group 4, ACLT + MIV-711 100 µmol/kg
[2] = Level 1 LTP, Group 3, ACLT + MIV-711 30 µmol/kg
[3] = Level 1 LTP, Group 4, ACLT + MIV-711 100 µmol/kg
[4] = Level 1 MFC, Group 3, ACLT + MIV-711 30 µmol/kg
[5] = Level 1 MFC, Group 4, ACLT + MIV-711 100 µmol/kg

C#C[C@@H]1CN(C(=O)[C@H](CC(C)C)NC(=O)c2ccc(-c3nc(N4CCN(C)CC4)sc3F)cc2)[C@@H]2C(=O)CO[C@H]12 [MIV-711]
Cart.Ar, Median [1]: 3.33 mm2
Cart.Bd, Mean [1]: 11.05 mm
Cart.Bd, Median [1]: 11.43 mm
Cart.Pm, Mean [1]: 11.98 mm
Cart.Pm, Median [1]: 12.38 mm
Cart.Wi, Mean [1]: 290.77 µm
Cart.Wi, Median [1]: 272.05 µm
Ophte.Ar, Mean [1]: 3.18 mm2
Ophte.Ar, Median [1]: 1.06 mm2
SCB.Wi, Mean [1]: 478.03 µm
SCB.Wi, Median [1]: 466.56 µm
Tb.N, Mean [1]: 2.76 1/mm
Tb.N, Median [1]: 2.79 1/mm
Tb.Sp, Mean [1]: 215.44 µm
Tb.Sp, Median [1]: 222.15 µm
Tb.Th, Mean [1]: 147.91 µm
Tb.Th, Median [1]: 146.15 µm
BV/TV, Mean [2]: 43.89%
BV/TV, Median [2]: 43.62%
Cart.Ar, Mean [2]: 2.03 mm2
Cart.Ar, Median [2]: 2.02 mm2
Cart.Bd, Mean [2]: 6.10 mm
Cart.Bd, Median [2]: 6.13 mm
Cart.Pm, Mean [2]: 6.15 mm
Cart.Pm, Median [2]: 6.13 mm
Cart.Wi, Mean [2]: 340.85 µm
Cart.Wi, Median [2]: 342.70 µm
Ophte.Ar, Mean [2]: 0.43 mm2
Ophte.Ar, Median [2]: 0.58 mm2
SCB.Wi, Mean [2]: 532.09 µm
SCB.Wi, Median [2]: 572.30 µm
Tb.N, Mean [2]: 2.79 1/mm
Tb.N, Median [2]: 2.77 1/mm
Tb.Sp, Mean [2]: 202.57 µm
Tb.Sp, Median [2]: 211.29 µm
Tb.Th, Mean [2]: 159.11 µm
Tb.Th, Median [2]: 141.92 µm
BV/TV, Mean [3]: 43.87%
BV/TV, Median [3]: 45.02%
Cart.Ar, Mean [3]: 2.49 mm2
Cart.Ar, Median [3]: 2.63 mm2
Cart.Bd, Mean [3]: 6.56 mm
Cart.Bd, Median [3]: 6.67 mm
Cart.Pm, Mean [3]: 6.48 mm
Cart.Pm, Median [3]: 6.62 mm
Cart.Wi, Mean [3]: 391.09 µm
Cart.Wi, Median [3]: 393.49 µm
Ophte.Ar, Mean [3]: 0.62 mm2
Ophte.Ar, Median [3]: 0.37 mm2
SCB.Wi, Mean [3]: 557.78 µm
SCB.Wi, Median [3]: 592.81 µm
Tb.N, Mean [3]: 2.47 1/mm
Tb.N, Median [3]: 2.39 1/mm
Tb.Sp, Mean [3]: 232.42 µm
Tb.Sp, Median [3]: 223.55 µm
Tb.Th, Mean [3]: 179.81 µm
Tb.Th, Median [3]: 179.09 µm
BV/TV, Mean [4]: 52.87%
BV/TV, Median [4]: 51.00%
Cart.Ar, Mean [4]: 2.30 mm2
Cart.Ar, Median [4]: 2.03 mm2
Ophte.Ar, Mean [4]: 2.75 mm2
Ophte.Ar, Median [4]: 2.12 mm2
Tb.N, Mean [4]: 2.87 1/mm
Tb.N, Median [4]: 2.98 1/mm
Tb.Sp, Mean [4]: 164.11 µm
Tb.Sp, Median [4]: 161.32 µm
Tb.Th, Mean [4]: 190.82 µm
Tb.Th, Median [4]: 169.90 µm
BV/TV, Mean [5]: 46.41%
BV/TV, Median [5]: 48.01%
Cart.Ar, Mean [5]: 2.99 mm2
Cart.Ar, Median [5]: 3.31 mm2
Ophte.Ar, Mean [5]: 5.87 mm2
Ophte.Ar, Median [5]: 1.02 mm2
Tb.N, Mean [5]: 2.87 1/mm
Tb.N, Median [5]: 2.92 1/mm
Tb.Sp, Mean [5]: 189.94 µm
Tb.Sp, Median [5]: 173.69 µm
Tb.Th, Mean [5]: 161.31 µm
